From PubChem BioAssay (NCI) come the findings set out here.

Among the test systems are HCT-116 colon; LOX IMVI melanoma; CCRF-CEM leukemia; SK-MEL-28 melanoma; SF-539 CNS; SR leukemia; NCI-H460 lung; NCI-H522 lung; OVCAR-8 ovarian; PC-3 prostate.
Holding throughout (assay): inhibition of tumour cell growth, NCI panel, 48 h

Molecules are shown by their SMILES.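 Cultured in 96-well plates, cells were exposed to test compound for 48 hours across five concentrations. GI50 = concentration required for 50% inhibition of growth. TGI denotes the concentration required for complete inhibition of growth.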

Take `Cn1nc(-c2ccccc2)c2c(/C=C/c3ccccc3)onc2c1=O`: the TGI in the test on HCT-116 colon, in the test with LOX IMVI melanoma, in the test on CCRF-CEM leukemia, in the test on SK-MEL-28 melanoma, in the test with SF-539 CNS and with SR leukemia was over 100 µM each time. In addition, the TGI in the test on NCI-H460 lung, in the test with NCI-H522 lung and in the test with OVCAR-8 ovarian was over 100 µM throughout.
`CC(=O)c1c(C)[nH]c(-c2nc3ccc(N4CCN(C)CC4)cc3[nH]2)c1-c1ccccc1`: the GI50 in the test on PC-3 prostate is 1.04 µM; with HCT-116 colon it was 1.54 µM; with LOX IMVI melanoma it was 0.546 µM; in the test on CCRF-CEM leukemia, 4.69 µM; with SK-MEL-28 melanoma it was 3.38 µM; with SF-539 CNS it was 1.47 µM. Moreover, the GI50 with NCI-H460 lung is 4.24 µM; in the test on NCI-H522 lung it was 0.258 µM; with OVCAR-8 ovarian it was 3.08 µM. Besides, the TGI was over 100 µM in the test on PC-3 prostate; 17.2 µM in the test on HCT-116 colon; 10.1 µM in the test on LOX IMVI melanoma; over 100 µM in the test with CCRF-CEM leukemia; 19.9 µM with SK-MEL-28 melanoma; 17.5 µM in the test with SF-539 CNS. Also, the TGI in the test on NCI-H460 lung is 31.4 µM; in the test with NCI-H522 lung, 14.4 µM; with OVCAR-8 ovarian, over 100 µM.
Regarding `CC1=C(C(=O)Nc2ccc(Cl)c(C(=O)OC(C)C)c2)SCCO1`, the TGI was over 100 µM in the test on PC-3 prostate; over 77.4 µM in the test on HCT-116 colon; 84.6 µM in the test with LOX IMVI melanoma; 65.1 µM in the test on CCRF-CEM leukemia; 99.5 µM in the test with SK-MEL-28 melanoma; over 97 µM in the test on SF-539 CNS. Further, the TGI in the test with NCI-H460 lung is 99.6 µM; in the test on NCI-H522 lung it was 69.9 µM; in the test on OVCAR-8 ovarian, over 100 µM.
For the molecule `CC1=C(C(=O)Nc2cc(F)c(F)cc2F)C(c2ccc([N+](=O)[O-])cc2)C(C(=O)Nc2cc(F)c(F)cc2F)=C(C)N1`, the TGI was over 100 µM in the test with HCT-116 colon; over 100 µM in the test on LOX IMVI melanoma; 78.7 µM with CCRF-CEM leukemia; over 100 µM in the test on SK-MEL-28 melanoma; over 100 µM in the test with SF-539 CNS; over 100 µM with NCI-H460 lung. Besides, the TGI in the test on NCI-H522 lung is 55.6 µM; in the test with OVCAR-8 ovarian, over 100 µM.
As to `CCSc1c2ccccc2c(-c2nc(F)nc(F)n2)n1CCc1ccccc1`, the TGI with HCT-116 colon, in the test with LOX IMVI melanoma, in the test with CCRF-CEM leukemia, with SK-MEL-28 melanoma, with SF-539 CNS and in the test with SR leukemia was over 100 µM each time. Besides, the TGI in the test with NCI-H460 lung and in the test with NCI-H522 lung was over 100 µM in each case.
With `CC[C@H](C)[C@H](NC(=O)CN(C)C)C(=O)N(C)[C@H](C[C@@H](OC(C)=O)c1nc(C(=O)NC23CC(C(=O)OC)(C2)C3)cs1)C(C)C`, the GI50 with PC-3 prostate is 0.804 µM; in the test with HCT-116 colon, 0.381 µM; with LOX IMVI melanoma it was 0.276 µM; with CCRF-CEM leukemia it was 0.0932 µM; in the test on SK-MEL-28 melanoma, 3.06 µM; with SF-539 CNS it was 0.307 µM. Further, the results for the GI50 in the test on NCI-H460 lung, with NCI-H522 lung and in the test on OVCAR-8 ovarian were 0.408 µM, 0.0511 µM and 0.46 µM, respectively. The TGI with PC-3 prostate is over 25 µM; with HCT-116 colon it was over 25 µM; in the test on LOX IMVI melanoma, over 25 µM; in the test with CCRF-CEM leukemia it was over 25 µM; with SK-MEL-28 melanoma it was over 25 µM; with SF-539 CNS it was 1.56 µM. The TGI in the test on NCI-H460 lung is over 25 µM; in the test with NCI-H522 lung, over 7.88 µM; in the test on OVCAR-8 ovarian, over 25 µM.
Take `CN(CCCNC(=O)CCOCCOCCOCCNC(=O)Cc1ccc2ccc3cccc4ccc1c2c34)CCCNc1cc(-c2ccc3ccccc3c2)nc2ccccc12`: the GI50 is 0.435 µM in the test with PC-3 prostate; 0.13 µM with HCT-116 colon; 0.176 µM in the test on LOX IMVI melanoma; 0.191 µM in the test with SK-MEL-28 melanoma; 0.526 µM with SF-539 CNS; 0.52 µM in the test with NCI-H460 lung. Further, in the test with OVCAR-8 ovarian, the GI50 is 0.341 µM. Further, the TGI was determined as 0.988 µM in the test on PC-3 prostate; 32.5 µM in the test with HCT-116 colon; 0.333 µM in the test with LOX IMVI melanoma; 0.347 µM with SK-MEL-28 melanoma; 0.99 µM in the test with SF-539 CNS; 1.02 µM in the test with NCI-H460 lung. The molecule further yielded a TGI in the test with OVCAR-8 ovarian of 0.735 µM.
Turning to `CC1(c2ccc(Cl)cc2)C2C(=O)NC(=O)C1C(=O)NC2=O` (stereo not drawn), the TGI in the test with LOX IMVI melanoma, in the test with CCRF-CEM leukemia, with SK-MEL-28 melanoma, in the test on SF-539 CNS, in the test with NCI-H460 lung and with NCI-H522 lung was over 100 µM throughout. For the same molecule, the TGI with OVCAR-8 ovarian was over 100 µM.
Turning to `CN1c2ccccc2N(C(=O)c2ccccc2)C(CC(=O)O)c2cccn21` (stereo not drawn), the TGI in the test on LOX IMVI melanoma, with CCRF-CEM leukemia, in the test on SK-MEL-28 melanoma, with SF-539 CNS, in the test with NCI-H460 lung and with NCI-H522 lung was over 100 µM each time. In the test on OVCAR-8 ovarian, this molecule had a TGI of over 100 µM.
With `CC(=O)O[C@H]1CC[C@@]2(C)C(=CC[C@@H]3C2CC[C@]2(C)Nc4nc5ccccc5cc4CC32)C1` (stereo partly drawn), the TGI in the test with HCT-116 colon came out at 3.8 µM; in the test with CCRF-CEM leukemia, 14 µM; in the test on SF-539 CNS it was 12 µM; with NCI-H460 lung, 17.5 µM; with NCI-H522 lung, 24.1 µM; in the test with OVCAR-8 ovarian it was 10.9 µM.
Consider `CCOc1ccc(NC(=O)CC2C(=O)Nc3ccccc3S2(=O)=O)cc1` (stereo not drawn), for which the TGI in the test on HCT-116 colon, in the test with LOX IMVI melanoma, in the test on SK-MEL-28 melanoma, with SF-539 CNS, in the test with SR leukemia and with NCI-H460 lung was over 100 µM in each case. Also, the TGI in the test with NCI-H522 lung and in the test on OVCAR-8 ovarian was over 100 µM in each case.
For the molecule `CCN1CCN(C(=O)[C@]23CCC(C)(C)C[C@@H]2C2=CC[C@@H]4[C@@]5(C)C/C(=C/c6ccncc6)C(=O)C(C)(C)[C@@H]5CC[C@@]4(C)[C@]2(C)CC3)CC1`, the GI50 was 0.833 µM with PC-3 prostate; 1.35 µM with HCT-116 colon; 1.4 µM in the test on LOX IMVI melanoma; 1.7 µM with CCRF-CEM leukemia; 1.62 µM with SK-MEL-28 melanoma; 1.64 µM with SF-539 CNS. Further, the figures for the GI50 in the test with NCI-H460 lung and with NCI-H522 lung were 1.28 µM and 1.53 µM, respectively. Further, the TGI was 2.2 µM in the test with PC-3 prostate; 2.87 µM with HCT-116 colon; 2.8 µM in the test with LOX IMVI melanoma; 5.32 µM with CCRF-CEM leukemia; 3.03 µM with SK-MEL-28 melanoma; 3.04 µM with SF-539 CNS. Further, the TGI in the test on NCI-H460 lung came to 2.7 µM; in the test with NCI-H522 lung, 3.39 µM.
